Literature values in publication PMC5107951 (Scientific Reports, 2016).

Test system: GABA-A receptor
Conditions: cited from earlier work

## α-cobratoxin
  binding to GABA-A receptor (in words): also binds

## α-conotoxin ImI
  binding to GABA-A receptor (in words): low affinity
